Assay results published in patent US20070010532A1, “3-Pyridylcarboxamide derivatives as pesticidal agents” (BAYER CROPSCIENCE GMBH, priority 2003, published 2007).

Tests used:
[1] = tested on: black bean aphids (Aphis fabae); experiment: Method A: field bean plants (Vicia faba) and aphids dipped into aqueous solution of the formulated preparation; format: in vivo; settings: read-out: mortality among the aphids
Description: Germinated field bean seeds (Vicia faba) with seed roots were transferred into brown glass bottles filled with tap water and then populated with about 100 black bean aphids (Aphis fabae). Plants and aphids were then dipped into an aqueous solution of the formulated preparation to be examined for 5 seconds. After they had drained, plants and animals were stored in a climatized chamber (16 hours of light/day, 25° C., 40-60% relative atmospheric humidity). After 3 and 6 days of storage, the effect of the preparation on the aphids was determined. […]

[2] = tested on: black bean aphids (Aphis fabae); experiment: Method B: root-systemic action, preparation pipetted into the bottle of field bean (Vicia faba) populated with aphids; format: in vivo; settings: read-out: mortality among the aphids, by root-systemic action
Description: Germinated field bean seeds (Vicia faba) with seed roots were transferred into brown glass bottles filled with tap water and then populated with about 100 black bean aphids (Aphis fabae). Plants and aphids were then dipped into an aqueous solution of the formulated preparation to be examined for 5 seconds. After they had drained, plants and animals were stored in a climatized chamber (16 hours of light/day, 25° C., 40-60% relative atmospheric humidity). After 3 and 6 days of storage, the effect of the preparation on the aphids was determined. […] Method B:
Germinated field bean seeds (Vicia faba) with seed roots were transferred into brown glass bottles filled with tap water. Four milliliters of an aqueous solution of the formulated preparation to be examined were pipetted into the brown glass bottle. The field bean was then heavily populated with about 100 black bean aphids (Aphis fabae). Plants and aphids were then stored in a climatized chamber (16 hours of light/day, 25° C., 40-60% relative atmospheric humidity). After 3 and 6 days of storage, the root-systemic effect of the preparation on the aphids was determined.

Molecule `CC1(C)N/C(=N/C(=O)c2cnccc2C(F)(F)F)N(Cc2ccc(Cl)cc2)C1=O` [Compound B-529, N-[(2Z)-1-(4-chlorobenzyl)-4,4-dimethyl-5-oxo-2-imidazolidinylidene]-4-(trifluoromethyl)nicotinamide] has a mortality at 300 ppm [1] of 90 to 100% and a mortality at 30 ppm [2] of 90 to 100%.
With `CCC1(C)N/C(=N/C(=O)c2cnccc2C(F)(F)F)NC1=O` (stereo not drawn) [Compound B-91, N-[(2Z)-4-ethyl-4-methyl-5-oxo-2-imidazolidinylidene]-4-(trifluoromethyl)nicotinamide] the mortality at 300 ppm [1] was 90 to 100% and the mortality at 30 ppm [2] was 90 to 100%.
With `CSC1=N/C(=N\C(=O)c2cnccc2C(F)(F)F)N(C(C)=O)C1(C)C` [Compound E-135, N-[(2Z)-1-acetyl-5,5-dimethyl-4-methylthio-1,5-dihydro-2H-imidazol-2-ylidene]-4-(trifluoromethyl)nicotinamide] the mortality at 300 ppm [1] was 90 to 100% and the mortality at 30 ppm [2] was 90 to 100%.
